# From PubChem BioAssay AID1845203 (Molecular Pharmacology Branch, DTP, NCI, 2023)
# Tested on: G-401 tumor spheroids, viability % test/control
# Assay: Anticancer human tumor G-401 cell line growth inhibition;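 also: spheroids exposed to compound for 7 days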;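 as to viability, T/C: 100% = DMSO vehicle-treated spheroids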
# Details: spheroids with HUVEC and MSC; for IC50: curve of first compound; for viability, T/C: stronger effect = lower value
# How it was run: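 Complex tumor spheroids combined malignant cells with endothelial cells and mesenchymal stem cells. DNA-damaging drugs and DNA repair inhibitors were tested alone and in combination, at half-log dilutions down from clinical Cmax (top 10 microM if Cmax unknown), 0.25% DMSO final.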
smiles,measurement,setting,value
O=C(c1cc(Cc2n[nH]c(=O)c3ccccc23)ccc1F)N1CCN(C(=O)C2CC2)CC1 + CC[C@@]1(O)C(=O)OCc2c1cc1n(c2=O)Cc2cc3c(CN(C)C)c(O)ccc3nc2-1,IC50,second compound 0.003 µM,991 nM
same,IC50,second compound 0.00949 µM,< 94.9 nM
same,IC50,second compound 0.03 µM,< 94.9 nM
same,IC50,second compound 0.0949 µM,< 94.9 nM
same,IC50,second compound 0.3 µM,< 94.9 nM
same,"viability, T/C","second compound 0.003 µM, first compound 0.0949 µM",49.4%
same,"viability, T/C","second compound 0.003 µM, first compound 0.3 µM",51.8%
same,"viability, T/C","second compound 0.003 µM, first compound 0.949 µM",52.1%
same,"viability, T/C","second compound 0.003 µM, first compound 3 µM",43.9%
same,"viability, T/C","second compound 0.003 µM, first compound 9.49 µM",28.3%
same,"viability, T/C","second compound 0.003 µM, first compound 30 µM",13.6%
same,"viability, T/C","second compound 0.00949 µM, first compound 0.0949 µM",18.2%
same,"viability, T/C","second compound 0.00949 µM, first compound 0.3 µM",19.1%
same,"viability, T/C","second compound 0.00949 µM, first compound 0.949 µM",24%
same,"viability, T/C","second compound 0.00949 µM, first compound 3 µM",18.4%
same,"viability, T/C","second compound 0.00949 µM, first compound 9.49 µM",17.2%
same,"viability, T/C","second compound 0.00949 µM, first compound 30 µM",12.4%
same,"viability, T/C","second compound 0.03 µM, first compound 0.0949 µM",9.43%
same,"viability, T/C","second compound 0.03 µM, first compound 0.3 µM",10.1%
same,"viability, T/C","second compound 0.03 µM, first compound 0.949 µM",10.1%
same,"viability, T/C","second compound 0.03 µM, first compound 3 µM",9.87%
same,"viability, T/C","second compound 0.03 µM, first compound 9.49 µM",9.41%
same,"viability, T/C","second compound 0.03 µM, first compound 30 µM",9.05%
same,"viability, T/C","second compound 0.0949 µM, first compound 0.0949 µM",7.02%
same,"viability, T/C","second compound 0.0949 µM, first compound 0.3 µM",6.74%
same,"viability, T/C","second compound 0.0949 µM, first compound 0.949 µM",7.7%
same,"viability, T/C","second compound 0.0949 µM, first compound 3 µM",7.1%
same,"viability, T/C","second compound 0.0949 µM, first compound 9.49 µM",6.71%
same,"viability, T/C","second compound 0.0949 µM, first compound 30 µM",7.06%
same,"viability, T/C","second compound 0.3 µM, first compound 0.0949 µM",4.94%
same,"viability, T/C","second compound 0.3 µM, first compound 0.3 µM",5.39%
same,"viability, T/C","second compound 0.3 µM, first compound 0.949 µM",5.37%
same,"viability, T/C","second compound 0.3 µM, first compound 3 µM",6.35%
same,"viability, T/C","second compound 0.3 µM, first compound 9.49 µM",5.22%
same,"viability, T/C","second compound 0.3 µM, first compound 30 µM",6.07%
CC1COCCN1c1cc(-c2ccnn2C)c2ccnc(-c3ccn[nH]3)c2n1 (stereo not given) + Cn1nnc2c(C(N)=O)ncn2c1=O,IC50,second compound 1 µM,76.9 nM
same,IC50,second compound 3.16 µM,86.6 nM
same,IC50,second compound 10 µM,79.7 nM
same,IC50,second compound 31.6 µM,70 nM
same,IC50,second compound 100 µM,55.6 nM
same,"viability, T/C","second compound 1 µM, first compound 0.0316 µM",76.3%
same,"viability, T/C","second compound 1 µM, first compound 0.1 µM",42.1%
same,"viability, T/C","second compound 1 µM, first compound 0.316 µM",22.9%
same,"viability, T/C","second compound 1 µM, first compound 1 µM",15.9%
same,"viability, T/C","second compound 1 µM, first compound 3.16 µM",16.1%
same,"viability, T/C","second compound 1 µM, first compound 10 µM",20%
same,"viability, T/C","second compound 3.16 µM, first compound 0.0316 µM",79.8%
same,"viability, T/C","second compound 3.16 µM, first compound 0.1 µM",45.6%
same,"viability, T/C","second compound 3.16 µM, first compound 0.316 µM",24.9%
same,"viability, T/C","second compound 3.16 µM, first compound 1 µM",16.8%
same,"viability, T/C","second compound 3.16 µM, first compound 3.16 µM",17.4%
same,"viability, T/C","second compound 3.16 µM, first compound 10 µM",19.8%
same,"viability, T/C","second compound 10 µM, first compound 0.0316 µM",76%
same,"viability, T/C","second compound 10 µM, first compound 0.1 µM",43.6%
same,"viability, T/C","second compound 10 µM, first compound 0.316 µM",21.5%
same,"viability, T/C","second compound 10 µM, first compound 1 µM",15.7%
same,"viability, T/C","second compound 10 µM, first compound 3.16 µM",16.4%
same,"viability, T/C","second compound 10 µM, first compound 10 µM",18.8%
same,"viability, T/C","second compound 31.6 µM, first compound 0.0316 µM",74.5%
same,"viability, T/C","second compound 31.6 µM, first compound 0.1 µM",39%
same,"viability, T/C","second compound 31.6 µM, first compound 0.316 µM",18%
same,"viability, T/C","second compound 31.6 µM, first compound 1 µM",15.4%
same,"viability, T/C","second compound 31.6 µM, first compound 3.16 µM",16.2%
same,"viability, T/C","second compound 31.6 µM, first compound 10 µM",18.5%
same,"viability, T/C","second compound 100 µM, first compound 0.0316 µM",66%
same,"viability, T/C","second compound 100 µM, first compound 0.1 µM",33.4%
same,"viability, T/C","second compound 100 µM, first compound 0.316 µM",13.7%
same,"viability, T/C","second compound 100 µM, first compound 1 µM",12.7%
same,"viability, T/C","second compound 100 µM, first compound 3.16 µM",14.1%
same,"viability, T/C","second compound 100 µM, first compound 10 µM",12%
